Results on ten compounds are retold here after paper PMC5484777 (Journal of medicinal chemistry, 2016).

A word on the IC50: it is the concentration needed to halve the response being measured. A word on the Ki: it is a measure of affinity in units of concentration, obtained from inhibition or displacement.

“Also recorded” adds a separate entry of the source.

The target of one data set is GluN1/2D receptors (Rattus norvegicus, UniProt P35439+Q62645). The class given is cell-based.
The target of the next data set is GluN1/2C receptors (Rattus norvegicus, UniProt P35439+Q00961). Format: cell-based.
The target in data set [1] is GluN1/2A receptors (Rattus norvegicus, UniProt P35439+Q00959). The class given is cell-based.
Chain of GluN1/2A receptors (Rattus norvegicus, UniProt P35439+Q00959) (Q00959 23-1464, other chains not shown): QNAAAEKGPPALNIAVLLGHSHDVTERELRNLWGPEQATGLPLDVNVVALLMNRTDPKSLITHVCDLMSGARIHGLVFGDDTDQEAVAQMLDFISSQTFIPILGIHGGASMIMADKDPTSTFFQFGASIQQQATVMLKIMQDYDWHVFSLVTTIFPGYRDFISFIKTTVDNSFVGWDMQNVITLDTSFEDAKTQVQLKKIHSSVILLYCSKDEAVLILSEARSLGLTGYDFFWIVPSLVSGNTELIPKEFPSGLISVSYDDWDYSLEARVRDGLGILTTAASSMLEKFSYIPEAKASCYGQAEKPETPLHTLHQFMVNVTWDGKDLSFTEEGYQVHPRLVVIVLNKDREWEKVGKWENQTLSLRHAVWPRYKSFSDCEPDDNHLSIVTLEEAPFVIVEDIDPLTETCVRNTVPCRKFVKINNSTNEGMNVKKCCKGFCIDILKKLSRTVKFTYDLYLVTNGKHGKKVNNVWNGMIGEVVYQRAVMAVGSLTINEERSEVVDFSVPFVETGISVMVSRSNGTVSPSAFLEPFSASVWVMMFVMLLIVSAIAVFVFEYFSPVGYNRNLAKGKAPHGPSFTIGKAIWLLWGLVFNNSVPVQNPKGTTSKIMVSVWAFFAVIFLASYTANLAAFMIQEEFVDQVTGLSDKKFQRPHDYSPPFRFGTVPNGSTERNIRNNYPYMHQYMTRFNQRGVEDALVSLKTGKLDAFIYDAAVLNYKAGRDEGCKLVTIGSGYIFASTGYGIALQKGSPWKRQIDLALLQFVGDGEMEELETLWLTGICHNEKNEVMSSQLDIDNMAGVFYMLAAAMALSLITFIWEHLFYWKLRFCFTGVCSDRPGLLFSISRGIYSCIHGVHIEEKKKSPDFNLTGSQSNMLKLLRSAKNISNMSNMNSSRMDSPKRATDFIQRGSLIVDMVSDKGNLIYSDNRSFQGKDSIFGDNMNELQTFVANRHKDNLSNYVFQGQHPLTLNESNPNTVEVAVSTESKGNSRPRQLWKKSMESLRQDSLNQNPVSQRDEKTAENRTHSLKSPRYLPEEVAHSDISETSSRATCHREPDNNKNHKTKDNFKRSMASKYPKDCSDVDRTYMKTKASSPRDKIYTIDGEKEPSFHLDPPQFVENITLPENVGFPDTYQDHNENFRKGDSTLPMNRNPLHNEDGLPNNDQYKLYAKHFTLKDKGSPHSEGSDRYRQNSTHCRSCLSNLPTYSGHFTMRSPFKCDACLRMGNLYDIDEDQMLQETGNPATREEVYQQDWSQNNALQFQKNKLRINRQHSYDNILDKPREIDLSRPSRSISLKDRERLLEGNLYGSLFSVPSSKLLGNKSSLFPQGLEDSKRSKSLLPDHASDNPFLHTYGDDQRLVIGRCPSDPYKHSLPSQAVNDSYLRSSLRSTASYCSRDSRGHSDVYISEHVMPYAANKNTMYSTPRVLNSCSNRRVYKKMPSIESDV
In the next data set the target is GluN1/2B receptors (Rattus norvegicus, UniProt P35439+Q00960). The class given is cell-based.
Chain of GluN1/2B receptors (Q00960 27-1482, other chains not shown): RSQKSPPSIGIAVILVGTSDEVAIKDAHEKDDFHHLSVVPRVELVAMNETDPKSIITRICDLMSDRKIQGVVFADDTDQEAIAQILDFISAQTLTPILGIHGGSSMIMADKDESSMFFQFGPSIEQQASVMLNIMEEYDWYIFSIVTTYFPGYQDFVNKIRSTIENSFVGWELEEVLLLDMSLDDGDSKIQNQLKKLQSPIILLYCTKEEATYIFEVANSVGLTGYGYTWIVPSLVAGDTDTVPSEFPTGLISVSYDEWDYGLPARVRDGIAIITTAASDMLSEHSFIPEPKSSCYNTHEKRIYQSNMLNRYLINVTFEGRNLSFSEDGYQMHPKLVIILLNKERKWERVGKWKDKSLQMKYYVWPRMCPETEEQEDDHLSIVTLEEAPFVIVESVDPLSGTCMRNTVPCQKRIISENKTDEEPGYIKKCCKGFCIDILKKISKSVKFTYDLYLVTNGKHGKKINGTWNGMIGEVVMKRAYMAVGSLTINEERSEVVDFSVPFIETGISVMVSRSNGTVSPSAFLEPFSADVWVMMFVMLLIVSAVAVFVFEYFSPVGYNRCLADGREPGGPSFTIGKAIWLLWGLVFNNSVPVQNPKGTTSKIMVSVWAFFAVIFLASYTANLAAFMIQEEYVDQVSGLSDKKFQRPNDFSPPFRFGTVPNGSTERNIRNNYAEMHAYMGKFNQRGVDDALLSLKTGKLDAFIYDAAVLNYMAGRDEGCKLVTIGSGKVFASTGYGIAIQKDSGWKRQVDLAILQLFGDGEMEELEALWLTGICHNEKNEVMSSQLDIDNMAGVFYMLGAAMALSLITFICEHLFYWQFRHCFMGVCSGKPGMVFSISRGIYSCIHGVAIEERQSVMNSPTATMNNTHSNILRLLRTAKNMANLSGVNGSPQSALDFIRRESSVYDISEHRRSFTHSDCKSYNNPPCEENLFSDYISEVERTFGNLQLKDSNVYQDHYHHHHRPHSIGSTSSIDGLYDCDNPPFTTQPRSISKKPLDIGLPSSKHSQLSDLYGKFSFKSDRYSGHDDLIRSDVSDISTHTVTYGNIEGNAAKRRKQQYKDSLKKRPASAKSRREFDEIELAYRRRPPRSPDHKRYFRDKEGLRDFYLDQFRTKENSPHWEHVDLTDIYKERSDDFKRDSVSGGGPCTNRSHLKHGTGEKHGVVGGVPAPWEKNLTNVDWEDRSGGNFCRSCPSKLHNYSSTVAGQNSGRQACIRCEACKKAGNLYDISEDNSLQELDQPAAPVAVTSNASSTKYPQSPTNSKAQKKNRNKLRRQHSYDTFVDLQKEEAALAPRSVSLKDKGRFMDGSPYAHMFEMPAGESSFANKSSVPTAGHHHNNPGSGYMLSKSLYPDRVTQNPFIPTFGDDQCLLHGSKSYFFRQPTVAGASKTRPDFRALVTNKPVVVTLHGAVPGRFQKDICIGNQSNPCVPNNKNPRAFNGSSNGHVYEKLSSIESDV
A further data set in a line: In vivo PET-CT imaging. Further details: species or system female athymic nude mice. To be noted: intravenous bolus, dynamic PET, mice.
Data set [2] can be described thus: Ex vivo brain autoradiography. Format: in vivo, female athymic nude mice. Particulars: serial brain sections.
The target in data set [3] is GluN1/2A receptors (Rattus norvegicus, UniProt Q00959). The class given is cell-based. Particulars: ratio est Ki GluN1/2B / GluN1/2A.
For another data set, the system named is GluN1/2A. Particulars: cited from earlier work.
Data set [4] is described as follows: Ex vivo brain biodistribution and autoblockade of [11C]11e. The class given is in vivo, CD-1 mice. To be noted: 15–75 min uptake, IV, mice (Figure 4A,B).

Chain of GluN1/2D receptors (Q62645 28-1323, other chains not shown): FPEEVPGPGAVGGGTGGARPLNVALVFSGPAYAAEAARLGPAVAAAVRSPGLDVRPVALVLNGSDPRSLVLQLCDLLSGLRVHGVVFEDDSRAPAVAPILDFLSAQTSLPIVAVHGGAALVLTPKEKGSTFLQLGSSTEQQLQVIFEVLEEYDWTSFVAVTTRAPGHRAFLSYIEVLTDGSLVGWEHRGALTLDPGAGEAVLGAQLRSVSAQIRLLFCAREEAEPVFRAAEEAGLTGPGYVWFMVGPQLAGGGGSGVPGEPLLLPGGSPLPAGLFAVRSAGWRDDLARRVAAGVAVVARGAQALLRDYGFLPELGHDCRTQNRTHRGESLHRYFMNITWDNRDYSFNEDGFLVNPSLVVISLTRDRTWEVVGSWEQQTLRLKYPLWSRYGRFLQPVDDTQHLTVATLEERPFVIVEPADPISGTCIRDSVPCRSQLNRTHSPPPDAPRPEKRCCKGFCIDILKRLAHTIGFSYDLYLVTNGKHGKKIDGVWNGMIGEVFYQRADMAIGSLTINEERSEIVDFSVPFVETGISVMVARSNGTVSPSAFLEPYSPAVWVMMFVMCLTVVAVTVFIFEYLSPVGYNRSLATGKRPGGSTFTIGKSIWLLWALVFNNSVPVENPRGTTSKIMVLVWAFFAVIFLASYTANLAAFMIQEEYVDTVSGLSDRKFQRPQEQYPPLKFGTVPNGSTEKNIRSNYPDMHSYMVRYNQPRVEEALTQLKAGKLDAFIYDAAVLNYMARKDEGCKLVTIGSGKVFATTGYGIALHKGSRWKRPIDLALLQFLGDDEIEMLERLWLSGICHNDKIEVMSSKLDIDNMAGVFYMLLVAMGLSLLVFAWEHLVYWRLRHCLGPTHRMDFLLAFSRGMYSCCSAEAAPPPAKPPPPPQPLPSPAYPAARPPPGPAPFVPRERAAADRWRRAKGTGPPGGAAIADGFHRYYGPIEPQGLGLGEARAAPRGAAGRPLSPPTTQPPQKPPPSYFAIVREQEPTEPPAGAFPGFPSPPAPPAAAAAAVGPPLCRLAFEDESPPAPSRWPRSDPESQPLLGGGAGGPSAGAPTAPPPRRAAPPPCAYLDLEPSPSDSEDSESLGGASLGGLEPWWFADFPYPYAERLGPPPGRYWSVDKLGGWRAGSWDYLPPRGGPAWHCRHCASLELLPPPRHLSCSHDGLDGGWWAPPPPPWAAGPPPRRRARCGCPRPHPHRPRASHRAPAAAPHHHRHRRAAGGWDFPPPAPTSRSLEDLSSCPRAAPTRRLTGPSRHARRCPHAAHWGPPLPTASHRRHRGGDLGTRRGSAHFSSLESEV

With `N[C@H](C[C@H]1CC(C(=O)O)=NN1c1ccc(Br)cc1)C(=O)O` [4c, (S)-5-((R)-2-Amino-2-carboxyethyl)-1-(4-bromophenyl)-4,5-dihydro-1H-pyrazole-3-carboxylic Acid], the IC50 against GluN1/2D receptors was 630 ± 40 nM; at GluN1/2C receptors, 190 ± 10 nM; against GluN1/2A receptors [1], 91 ± 4 nM; at GluN1/2B receptors, 250 ± 20 nM. The Ki is 200 ± 10 nM at GluN1/2D receptors, 47 ± 3 nM at GluN1/2C receptors, 25 ± 1 nM on GluN1/2A receptors [1] and 94 ± 7 nM on GluN1/2B receptors.

As to `COC(=O)C1=NN(c2ccc([124I])cc2)[C@@H](C[C@@H](N)C(=O)OC)C1` [[^124I]11d, Methyl (S)-5-((R)-2-Amino-3-methoxy-3-oxopropyl)-1-(4-[^124I]-iodophenyl)-4,5-dihydro-1H-pyrazole-3-carboxylate], in “In vivo PET-CT imaging”, the “brain uptake by in vivo PET imaging” value is given as “below the threshold of detection; also recorded: no observable brain uptake”.

Take `N[C@H](C[C@H]1CC(C(=O)O)=NN1c1ccc(I)cc1)C(=O)O` [4d, (S)-5-((R)-2-Amino-2-carboxyethyl)-1-(4-iodophenyl)-4,5-dihydro-1H-pyrazole-3-carboxylic Acid]: the IC50 turned out to be 560 ± 20 nM on GluN1/2C receptors, 910 ± 80 nM on GluN1/2A receptors [1] and 700 ± 40 nM against GluN1/2B receptors. Also, the results for the Ki at GluN1/2C receptors, on GluN1/2A receptors [1] and on GluN1/2B receptors were 140 ± 10 nM, 250 ± 20 nM and 270 ± 20 nM, respectively.

In the case of `N[C@H](C[C@H]1CC(C(=O)O)=NN1c1ccc([125I])cc1)C(=O)O` [[^125I]4d, (S)-5-((R)-2-Amino-2-carboxyethyl)-1-(4-[^125I]iodophenyl)-4,5-dihydro-1H-pyrazole-3-carboxylic Acid], the “brain uptake (ex vivo autoradiography)” value in data set [2] (60 min conscious uptake) was “no evidence of brain uptake”.

For `Cc1ccc(N2N=C(C(=O)O)C[C@@H]2C[C@@H](N)C(=O)O)cc1` [4e, (S)-5-((R)-2-Amino-2-carboxyethyl)-1-p-tolyl-4,5-dihydro-1H-pyrazole-3-carboxylic Acid], the Ki was 440 ± 20 nM on GluN1/2D receptors, 96 ± 5 nM on GluN1/2C receptors, 48 ± 3 nM on GluN1/2A receptors [1] and 250 ± 20 nM on GluN1/2B receptors. Further, the figures for the IC50 at GluN1/2C receptors, against GluN1/2A receptors [1] and against GluN1/2B receptors were 380 ± 20 nM, 180 ± 10 nM and 690 ± 50 nM, respectively. The “estimated Ki fold higher at GluN1/2B compared to GluN1/2A (selectivity)” value (“estimated Ki fold higher … (selectivity)” below) at GluN1/2A receptors [3] was 5.3 fold.

Turning to `COC(=O)C1=NN(c2ccc([125I])cc2)[C@@H](C[C@@H](N)C(=O)OC)C1` [[^125I]11d, Methyl (S)-5-((R)-2-Amino-3-methoxy-3-oxopropyl)-1-(4-[^125I]-iodophenyl)-4,5-dihydro-1H-pyrazole-3-carboxylate], in [2] (40 min conscious uptake), the “brain uptake (ex vivo autoradiography)” value is “brain region-selective uptake”.

Regarding `C[C@H](N[C@@H](c1cccc2[nH]c(=O)c(=O)[nH]c12)P(=O)(O)O)c1ccc(Br)cc1` [NVP-AAM077, [(R)-[(S)-1-(4-bromophenyl)-ethylamino]-(2,3-dioxo-1,2,3,4-tetrahydroquinoxalin-5-yl)-methyl]-phosphonic acid], the “binding affinity fold higher for GluN1/2A compared to GluN1/2B” value with GluN1/2A was 5.2 fold.

For the compound `N[C@H](C[C@H]1CC(C(=O)O)=NN1c1ccc(F)cc1)C(=O)O` [4a, (S)-5-((R)-2-Amino-2-carboxyethyl)-1-(4-fluorophenyl)-4,5-dihydro-1H-pyrazole-3-carboxylic Acid], the IC50 was 920 ± 20 nM against GluN1/2D receptors, 920 ± 20 nM on GluN1/2C receptors, 160 ± 10 nM against GluN1/2A receptors [1] and 860 ± 10 nM against GluN1/2B receptors. Further, the Ki was determined as 290 ± 10 nM at GluN1/2D receptors, 230 ± 10 nM at GluN1/2C receptors, 43 ± 2 nM at GluN1/2A receptors [1] and 330 ± 40 nM on GluN1/2B receptors. Moreover, the “estimated Ki fold higher … (selectivity)” value on GluN1/2A receptors [3] was 7.6 fold.

In the case of `COC(=O)C1=NN(c2ccc([11CH3])cc2)[C@@H](C[C@@H](NC(=O)OC(C)(C)C)C(=O)OC)C1` [[^11C]11e, Methyl (S)-5-((R)-2-((tert-Butoxycarbonyl)amino)-3-methoxy-3-oxopropyl)-1-(4-[^11C]methylphenyl)-4,5-dihydro-1H-pyrazole-3-carboxylate], in data set [4], the “uptake in brain regions” value was “below 1.5 % ID/g”.

`N[C@H](C[C@H]1CC(C(=O)O)=NN1c1ccc(Cl)cc1)C(=O)O` [4b, (S)-5-((R)-2-Amino-2-carboxyethyl)-1-(4-chlorophenyl)-4,5-dihydro-1H-pyrazole-3-carboxylic Acid]: the IC50 worked out at 520 ± 20 nM against GluN1/2D receptors, 180 ± 10 nM against GluN1/2C receptors, 98 ± 4 nM on GluN1/2A receptors [1] and 280 ± 20 nM on GluN1/2B receptors. In addition, the Ki at GluN1/2D receptors stood at 160 ± 10 nM; at GluN1/2C receptors it was 44 ± 2 nM; on GluN1/2A receptors [1] it was 27 ± 1 nM; on GluN1/2B receptors, 110 ± 10 nM. Also, at GluN1/2A receptors [3], the “estimated Ki fold higher … (selectivity)” value is recorded as 4.0 fold.
